Test results: patent US12344618B2, “Heterotricyclic derivative compound and use of same” (HANMI PHARMACEUTICAL CO., LTD., priority 2019, dated 2025)
Like-named read-outs stand apart in the source and are kept apart here.

Tests used:
[1] = Metabolic stability in human liver microsomes; assay type: in vitro ADME; conditions: 5 μM compound, 1 mg/mL human liver microsomes, 37° C., NADPH regenerating system
Procedure: (§1) In order to confirm the metabolic stability of the synthetic compounds in the liver, 5 μM test compound and 1 mg/mL human, dog, rat or mouse liver microsomes were allowed to react with each other at 37° C. in the presence of the NADPH regenerating system for 1 hour. After 1 hour, the reaction was terminated and the supernatant obtained by centrifugation was analyzed by HPLC. With the peak value obtained as the analysis result, the residual amount (%) was calculated using the following equation through the peak value of the test compound after 1 hour of the reaction versus the peak value of the test compound at 0 min. Residual amount (%)=(peak value of test compound after 1 hour of reaction/peak value of test compound at 0 min)×100

EZH1 = molecular target: T1, EZH1 (Homo sapiens, UniProt Q92800); assay: Inhibitory activity against EZH1 methyltransferase (radiometric scintillation proximity assay); assay type: biochemical; conditions: 2.3 nmol/L enzyme, 90 minutes, room temperature;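 further: Read-out is methylation of a substrate peptide, captured on streptavidin-coated SPA beads and counted by scintillation, in Tris-HCl buffer at pH 8.0 with 1% DMSO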
T1 construct: purchased Reaction Biology Corp. (contract assay)
Procedure: (§2) The inhibitory activities of the synthetic compounds against EZH1 or EZH2 methyltransferase were measured. The experiment was conducted by Reaction Biology Corp., and the activity of EZH1 or EZH2 was measured using a radiometric scintillation proximity assay. […] The reaction buffer consisted of 50 mmol/L Tris-HCl (pH 8.0), 50 mmol/L NaCl, 1 mmol/L EDTA, 1 mmoL/L DTT, 1 mmol/L PMSF, and 1% DMSO. Trichloroacetic acid was added to terminate the reaction, and PVT streptavidin-coated SPA beads were added to each reaction solution, followed by further reaction at room temperature for 1 hour again. The methylation value of the substrate peptide was measured using the TopCount NXT plate reader.

[2] = Metabolic stability in mouse liver microsomes; assay type: in vitro ADME; conditions: 5 μM compound, 1 mg/mL mouse liver microsomes, 37° C., NADPH regenerating system
Procedure: as §1

EZH2 = EZH2 (Homo sapiens, UniProt Q15910); assay: Inhibitory activity against EZH2 methyltransferase (radiometric scintillation proximity assay); conditions: Enzyme inhibitory activity (IC50, nM) EZH2, 2.3 nmol/L enzyme, 90 minutes, room temperature;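 further: Read-out is substrate peptide methylation, captured on streptavidin-coated SPA beads and counted by scintillation, with the reaction run in Tris-HCl buffer at pH 8.0 containing 1% DMSO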
Procedure: as §2

[3] = system: KARPAS-422 (EZH2 Y641N mutation); assay: Cell growth inhibition test, KARPAS-422; assay type: cell-based; conditions: KARPAS-422, culture time 7 days, read-out: Cell growth inhibitory activity (GI50, nM) KARPAS-422 (EZH2 Y641N mutation)
Procedure: Each type of the cultured cells was seeded in 6-well plates or 48-96 well plates, and subculture or medium replacement was performed every 3 to 4 days. Next, the cells were subcultured for a total of 7 to 14 days, and then seeded in 96-well plates. 3 to 5 days before the measurement of the effect, the cells were seeded in 96-well plates, and then the absorbance (Tz) on the day of seeding was measured. The absorbance after the reaction was measured by the plate reader device Synergy NeoAlpha (Biotek) using Cell-Titer-Glo Cell Viability Assay (Promega, G7573) according to the attached manual. Based on the absorbance (Tz) measured on the seeding day and the absorbance of each of the DMSO-treated group (C) and the sample-added group (Ti) measured on the day of effect determination, the percentage of cell proliferation inhibition was calculated according to the following Equation 1. [(Ti−Tz)/(C−Tz)]×100 for concentrations for which Ti≥Tz […] for concentrations for which Ti<Tz. [Equation 1]

[4] = Mouse pharmacokinetics, oral single dose; assay type: in vivo; conditions: mice (ICR, male), oral single dose 30 mg/kg, plasma, 30 mg/kg; for AUC: male, ICR, mouse, po, read-out: Area under oral curve (AUC)
Procedure: Pharmacokinetics of the synthetic compounds as EZH2 inhibitors in mice (ICR, 8-week-old, male) were tested.
The oral administration group was maintained in a fasting state from the day before the test to 4 hours after administration of the test compound. On the day of administration of the test compound, the weight of each animal was measured and each synthetic compound was formulated using a selected solvent based on 30 mg/kg (10 mL/kg). Each test compound was administered orally in a single dose, a certain amount of the blood was taken at a predetermined time, plasma was isolated therefrom, and the concentration of each test compound in the plasma was analyzed using LC-MS/MS (Waters UPLC H-Class/Xevo TQ; Waters, USA). Pharmacokinetic coefficients were calculated by a linear-log trapezoidal summation formula using a non-compartment analysis of the Phoenix™ WinNonlin (Certara, USA) program through the plasma concentration curve over time.

[5] = Homo sapiens, KARPAS-422, 168 h

Sequence of EZH2 (Q15910 whole entry): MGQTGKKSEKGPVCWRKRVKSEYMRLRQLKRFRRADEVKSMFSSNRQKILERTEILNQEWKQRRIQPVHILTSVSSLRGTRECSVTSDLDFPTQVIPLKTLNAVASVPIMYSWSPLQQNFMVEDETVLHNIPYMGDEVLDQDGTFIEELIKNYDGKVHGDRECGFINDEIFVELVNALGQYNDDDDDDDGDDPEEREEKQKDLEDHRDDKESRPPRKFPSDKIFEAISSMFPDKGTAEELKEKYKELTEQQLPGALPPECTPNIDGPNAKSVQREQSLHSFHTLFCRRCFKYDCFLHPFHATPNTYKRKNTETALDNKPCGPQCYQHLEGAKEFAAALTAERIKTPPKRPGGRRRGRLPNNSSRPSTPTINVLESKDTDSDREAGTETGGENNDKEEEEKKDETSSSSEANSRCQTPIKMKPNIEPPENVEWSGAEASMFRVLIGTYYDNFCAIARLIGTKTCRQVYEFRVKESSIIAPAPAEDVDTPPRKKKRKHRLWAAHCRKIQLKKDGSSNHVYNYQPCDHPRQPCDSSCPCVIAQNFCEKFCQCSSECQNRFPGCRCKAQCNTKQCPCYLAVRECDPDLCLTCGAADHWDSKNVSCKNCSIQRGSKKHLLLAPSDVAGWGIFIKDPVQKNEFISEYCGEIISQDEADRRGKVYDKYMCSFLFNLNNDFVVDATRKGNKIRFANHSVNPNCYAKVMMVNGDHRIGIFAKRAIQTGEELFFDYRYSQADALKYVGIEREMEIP
Sequence of EZH2 (O75530 whole entry partner): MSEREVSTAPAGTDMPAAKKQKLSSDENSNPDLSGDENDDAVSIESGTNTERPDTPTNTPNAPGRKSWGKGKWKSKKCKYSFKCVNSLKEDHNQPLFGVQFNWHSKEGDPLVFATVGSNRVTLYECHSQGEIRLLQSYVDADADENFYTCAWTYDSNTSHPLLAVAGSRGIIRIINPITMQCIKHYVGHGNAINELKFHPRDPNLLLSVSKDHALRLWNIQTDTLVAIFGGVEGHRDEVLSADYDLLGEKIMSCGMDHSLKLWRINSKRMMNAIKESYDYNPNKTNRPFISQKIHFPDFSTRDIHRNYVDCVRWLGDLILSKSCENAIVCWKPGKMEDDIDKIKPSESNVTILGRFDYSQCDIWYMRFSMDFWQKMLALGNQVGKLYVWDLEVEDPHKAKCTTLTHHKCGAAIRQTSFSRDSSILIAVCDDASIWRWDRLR
Sequence of EZH2 (Q15022 whole entry partner): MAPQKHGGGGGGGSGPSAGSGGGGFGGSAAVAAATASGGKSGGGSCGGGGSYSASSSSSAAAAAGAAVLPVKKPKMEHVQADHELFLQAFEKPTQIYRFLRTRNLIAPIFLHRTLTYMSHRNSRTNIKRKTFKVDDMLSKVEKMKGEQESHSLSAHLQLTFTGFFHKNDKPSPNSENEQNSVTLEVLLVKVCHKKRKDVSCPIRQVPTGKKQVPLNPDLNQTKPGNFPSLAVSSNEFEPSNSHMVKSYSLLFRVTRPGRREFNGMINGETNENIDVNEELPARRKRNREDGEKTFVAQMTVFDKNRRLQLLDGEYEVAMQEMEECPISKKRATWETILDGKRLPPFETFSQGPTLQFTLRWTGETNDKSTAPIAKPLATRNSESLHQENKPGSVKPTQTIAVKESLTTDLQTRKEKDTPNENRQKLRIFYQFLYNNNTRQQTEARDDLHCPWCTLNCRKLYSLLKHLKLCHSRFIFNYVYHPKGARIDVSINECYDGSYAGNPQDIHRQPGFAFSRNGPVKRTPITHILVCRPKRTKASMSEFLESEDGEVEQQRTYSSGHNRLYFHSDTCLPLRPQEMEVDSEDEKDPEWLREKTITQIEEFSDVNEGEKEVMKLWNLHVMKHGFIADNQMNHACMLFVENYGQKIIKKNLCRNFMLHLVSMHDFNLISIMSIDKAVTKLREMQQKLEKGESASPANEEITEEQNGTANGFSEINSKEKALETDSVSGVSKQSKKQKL
Sequence of EZH2 (Q09028 whole entry partner): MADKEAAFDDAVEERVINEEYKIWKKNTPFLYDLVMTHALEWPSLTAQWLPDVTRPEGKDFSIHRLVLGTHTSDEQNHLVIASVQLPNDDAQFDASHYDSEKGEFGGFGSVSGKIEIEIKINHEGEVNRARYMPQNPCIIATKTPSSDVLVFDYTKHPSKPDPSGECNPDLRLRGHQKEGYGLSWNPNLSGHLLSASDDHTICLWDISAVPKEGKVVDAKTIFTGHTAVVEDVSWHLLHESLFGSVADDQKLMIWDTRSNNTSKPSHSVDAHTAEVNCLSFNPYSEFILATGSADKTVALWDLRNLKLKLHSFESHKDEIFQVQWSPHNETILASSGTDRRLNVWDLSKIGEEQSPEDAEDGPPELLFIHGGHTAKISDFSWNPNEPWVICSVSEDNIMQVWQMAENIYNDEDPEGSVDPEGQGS
Sequence of EZH2 (Q6ZN18 whole entry partner): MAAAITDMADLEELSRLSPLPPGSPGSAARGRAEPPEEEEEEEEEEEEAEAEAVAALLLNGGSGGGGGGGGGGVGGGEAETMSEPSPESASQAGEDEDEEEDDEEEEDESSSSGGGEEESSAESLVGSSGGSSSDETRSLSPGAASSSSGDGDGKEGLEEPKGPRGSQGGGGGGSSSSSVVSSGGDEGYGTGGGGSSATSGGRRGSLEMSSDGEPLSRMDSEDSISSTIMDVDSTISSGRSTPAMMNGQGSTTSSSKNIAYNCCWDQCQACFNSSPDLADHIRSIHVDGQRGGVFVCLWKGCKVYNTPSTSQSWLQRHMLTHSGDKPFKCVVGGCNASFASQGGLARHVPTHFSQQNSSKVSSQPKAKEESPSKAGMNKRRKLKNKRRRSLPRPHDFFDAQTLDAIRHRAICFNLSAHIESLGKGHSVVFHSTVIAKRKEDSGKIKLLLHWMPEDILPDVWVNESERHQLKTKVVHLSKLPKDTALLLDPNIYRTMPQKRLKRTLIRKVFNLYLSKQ
T1 sequence (Q92800 whole entry): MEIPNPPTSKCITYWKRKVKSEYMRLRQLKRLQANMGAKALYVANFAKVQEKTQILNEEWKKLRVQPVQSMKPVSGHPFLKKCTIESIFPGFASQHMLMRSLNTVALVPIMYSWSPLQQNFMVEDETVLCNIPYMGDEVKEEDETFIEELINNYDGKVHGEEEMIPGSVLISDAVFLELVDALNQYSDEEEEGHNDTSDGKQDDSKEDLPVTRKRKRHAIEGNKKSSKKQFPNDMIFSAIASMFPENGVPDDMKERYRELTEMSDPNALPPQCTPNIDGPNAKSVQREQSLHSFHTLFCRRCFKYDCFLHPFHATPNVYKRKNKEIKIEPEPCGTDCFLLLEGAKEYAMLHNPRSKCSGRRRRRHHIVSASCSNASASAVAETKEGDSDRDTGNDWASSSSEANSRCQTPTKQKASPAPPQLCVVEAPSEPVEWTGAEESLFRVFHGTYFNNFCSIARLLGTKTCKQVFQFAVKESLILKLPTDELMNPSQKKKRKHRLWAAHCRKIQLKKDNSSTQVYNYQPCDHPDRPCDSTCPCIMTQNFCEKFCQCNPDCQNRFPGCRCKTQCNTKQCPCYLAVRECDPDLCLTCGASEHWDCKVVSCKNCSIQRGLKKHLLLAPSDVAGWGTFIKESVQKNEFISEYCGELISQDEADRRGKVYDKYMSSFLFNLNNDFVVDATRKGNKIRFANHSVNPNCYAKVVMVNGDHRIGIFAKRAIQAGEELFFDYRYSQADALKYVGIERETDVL
T1 sequence (O75530 whole entry partner): as the sequence (O75530 whole entry partner) above
T1 sequence (Q15022 whole entry partner): as the sequence (Q15022 whole entry partner) above
T1 sequence (Q09028 whole entry partner): as the sequence (Q09028 whole entry partner) above
T1 sequence (Q6ZN18 whole entry partner): as the sequence (Q6ZN18 whole entry partner) above

Structure (SMILES) | Residual amount (%) of test compound after 1 hour of reaction, Human [1] | IC50 (EZH1) | Residual amount (%) of test compound after 1 hour of reaction, Mouse [2] | IC50 (EZH2) | GI50 [3] | Area under oral curve (AUC) [4] | Half life T1/2 [4] | GI50 [3, 5] | AUC [4]
Cc1cc(C)c(CN2CCc3c(C)c4c(c(Cl)c3C2=O)OC(C)([C@H]2CC[C@H](N(C)C)CC2)O4)c(=O)[nH]1 (single isomer, unassigned) [Compound 5, 4-chloro-6-((4,6-dimethyl-2-oxo-1,2-dihydropyridin-3-yl)methyl)-2-(trans-4-(dimethylamino)cyclohexyl)-2,9-dimethyl-7,8-dihydro-[1,3]dioxolo[4,5-g]isoquinolin-5(6H)-one] | 89% | 16 nM | 78% | 1.3 nM | 2.4 nM |  |  |  | 
Cc1cc(C)c(CN2CCc3c(Cl)c4c(c(C)c3C2=O)OC(C)([C@H]2CC[C@H](N(C)C)CC2)O4)c(=O)[nH]1 (single isomer, unassigned) [Compound 11, 9-chloro-6-((4,6-dimethyl-2-oxo-1,2-dihydropyridin-3-yl)methyl)-2-(trans-4-(dimethylamino)cyclohexyl)-2,4-dimethyl-7,8-dihydro-[1,3]dioxolo[4,5-g]isoquinolin-5(6H)-one] | 37% | > 1000 nM | 70% | 116 to 473 nM | ≥ 563 nM |  |  |  | 
Cc1cc(C)c(CN2CCc3c(C)c4c(c(C)c3C2=O)OC(C)([C@H]2CC[C@H](N(C)C)CC2)O4)c(=O)[nH]1 (single isomer, unassigned) [Compound 41, 6-((4,6-dimethyl-2-oxo-1,2-dihydropyridin-3-yl)methyl)-2-(trans-4-(dimethylamino)cyclohexyl)-2,4,9-trimethyl-7,8-dihydro-[1,3]dioxolo[4,5-g]isoquinolin-5(6H)-one] | 53% | > 1000 nM | 63% | 69 nM | 69 nM |  |  |  | 
Cc1cc(C)c(CN2CCc3c(Br)c4c(c(C)c3C2=O)OC(C)([C@H]2CC[C@H](N(C)C)CC2)O4)c(=O)[nH]1 (single isomer, unassigned) [Compound 50, 9-bromo-6-((4,6-dimethyl-2-oxo-1,2-dihydropyridin-3-yl)methyl)-2-(trans-4-(dimethylamino)cyclohexyl)-2,4-dimethyl-7,8-dihydro-[1,3]dioxolo[4,5-g]isoquinolin-5(6H)-one] | 35% |  | 54% |  | 419 nM | 12,239 ng · hr/mL | 2.5 h |  | 
Cc1cc(C)c(CN2CCc3c(C)c4c(c(Cl)c3C2=O)OC(C)([C@H]2CC[C@H](N(C)C)CC2)O4)c(=O)[nH]1 (stereo partly drawn) [Compound 4] | 84% | 20 nM | 79% | 2.6 nM |  |  |  | 1.9 to 2.6 nM | 770 ng·h/mL
Cc1cc(C)c(CN2CCc3c(Cl)c4c(c(C)c3C2=O)OC(C)(C2CCNCC2)O4)c(=O)[nH]1 (stereo not drawn) [Compound 28, 9-chloro-6-((4,6-dimethyl-2-oxo-1,2-dihydropyridin-3-yl)methyl)-2,4-dimethyl-2-(piperidin-4-yl)-7,8-dihydro-[1,3]dioxolo[4,5-g]isoquinolin-5(6H)-one] |  | 55 nM |  | 3.2 nM |  |  |  | 14 nM | 
Cc1cc(C)c(CN2CCc3c(Cl)c4c(c(C)c3C2=O)OC(C)(C2CCN(C)CC2)O4)c(=O)[nH]1 (stereo not drawn) [Compound 29, 9-chloro-6-((4,6-dimethyl-2-oxo-1,2-dihydropyridin-3-yl)methyl)-2,4-dimethyl-2-(1-methylpiperidin-4-yl)-7,8-dihydro-[1,3]dioxolo[4,5-g]isoquinolin-5(6H)-one] |  | 136 nM |  | 5 nM |  |  |  | 51 nM | 
CC[C@@H](O)C(=O)N1CCC(C2(C)Oc3c(C)c4c(c(Cl)c3O2)CCN(Cc2c(C)cc(C)[nH]c2=O)C4=O)CC1 (stereo partly drawn) [Compound 30, 9-chloro-6-((4,6-dimethyl-2-oxo-1,2-dihydropyridin-3-yl)methyl)-2-(1-((R)-2-hydroxybutanoyl)piperidin-4-yl)-2,4-dimethyl-7,8-dihydro-[1,3]dioxolo[4,5-g]isoquinolin-5(6H)-one] |  | 190 nM |  | 3.4 nM |  |  |  | 307 nM | 
Cc1cc(C)c(CN2CCc3c(Cl)c4c(c(C)c3C2=O)OC(C)(C2CCN(CC(F)(F)F)CC2)O4)c(=O)[nH]1 (stereo not drawn) [Compound 31, 9-chloro-6-((4,6-dimethyl-2-oxo-1,2-dihydropyridin-3-yl)methyl)-2,4-dimethyl-2-(1-(2,2,2-trifluoroethyl)piperidin-4-yl)-7,8-dihydro-[1,3]dioxolo[4,5-g]isoquinolin-5(6H)-one] |  | 51 nM |  | 3.8 nM |  |  |  | 231 nM | 
CN[C@H]1CC[C@H](C2(C)Oc3c(C)c4c(c(Br)c3O2)CCN(Cc2c(C)cc(C)[nH]c2=O)C4=O)CC1 (stereo partly drawn) [Compound 51, 9-bromo-6-((4,6-dimethyl-2-oxo-1,2-dihydropyridin-3-yl)methyl)-2,4-dimethyl-2-(trans-4-(methylamino)cyclohexyl)-7,8-dihydro-[1,3]dioxolo[4,5-g]isoquinolin-5(6H)-one] | 70% | 41 nM | 64% | 1.6 nM |  |  |  | 4.4 nM | 1520 ng·h/mL
C=Cc1c2c(c(C)c3c1OC(C)([C@H]1CC[C@H](N(C)C)CC1)O3)C(=O)N(Cc1c(C)cc(C)[nH]c1=O)CC2 (stereo partly drawn) [Compound 52, 6-((4,6-dimethyl-2-oxo-1,2-dihydropyridin-3-yl)methyl)-2-(trans-4-(dimethylamino)cyclohexyl)-2,4-dimethyl-9-vinyl-7,8-dihydro-[1,3]dioxolo[4,5-g]isoquinolin-5(6H)-one] | 62% | 32 to 55 nM | 61% | 3.4 to 3.7 nM |  |  |  | 4.4 to 9.7 nM | 
C#Cc1c2c(c(C)c3c1OC(C)([C@H]1CC[C@H](N(C)C)CC1)O3)C(=O)N(Cc1c(C)cc(C)[nH]c1=O)CC2 (stereo partly drawn) [Compound 53, 6-((4,6-dimethyl-2-oxo-1,2-dihydropyridin-3-yl)methyl)-2-(trans-4-(dimethylamino)cyclohexyl)-9-ethynyl-2,4-dimethyl-7,8-dihydro-[1,3]dioxolo[4,5-g]isoquinolin-5(6H)-one] | 67% | 27 to 139 nM | 85% | 4.5 to 9.1 nM |  |  |  | 5.1 to 14 nM | 
Cc1cc(C)c(CN2CCc3c(c(C)c4c(c3C3CC3)OC(C)([C@H]3CC[C@H](N(C)C)CC3)O4)C2=O)c(=O)[nH]1 (stereo partly drawn) [Compound 54, 9-cyclopropyl-6-((4,6-dimethyl-2-oxo-1,2-dihydropyridin-3-yl)methyl)-2-(trans-4-(dimethylamino)cyclohexyl)-2,4-dimethyl-7,8-dihydro-[1,3]dioxolo[4,5-g]isoquinolin-5(6H)-one] |  | 41 nM |  | 6.4 nM |  |  |  | 19 nM | 
Cc1cc(C)c(CN2CCc3c(C#N)c4c(c(C)c3C2=O)OC(C)([C@H]2CC[C@H](N(C)C)CC2)O4)c(=O)[nH]1 (stereo partly drawn) [Compound 69, 6-((4,6-dimethyl-2-oxo-1,2-dihydropyridin-3-yl)methyl)-2-(trans-4-(dimethylamino)cyclohexyl)-2,4-dimethyl-5-oxo-5,6,7,8-tetrahydro-[1,3]dioxolo[4,5-g]isoquinolin-9-carbonitrile] |  | 65 nM |  | 2.7 nM |  |  |  | 10 nM | 
